Drawing on PubChem BioAssay (NCI), this text covers GI50 and TGI for six compounds.

Some test systems named below: OVCAR-3 ovarian; SK-MEL-5 melanoma; HOP-62 NSCLC; MOLT-4 leukemia; UACC-257 melanoma; SNB-19 CNS; RXF 393 renal; M14 melanoma; RPMI-8226 leukemia; DU-145 prostate.
What all share (test): NCI tumour cell line growth inhibition, 48 h

Molecules are shown by their SMILES. “And” between values parts separate entries of the source, which are not always exact repeats. Equal values may be shown once.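 Method: 48-hour compound exposure of cells in 96-well plates, five concentrations, linear interpolation of endpoints. At the GI50, growth is halved. TGI marks complete inhibition of growth.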 Bounds are passed on as bounds.

For the compound `Cc1cccc(NC(=O)c2sc3nc4c(cc3c2N)CCCC4)c1C`, the GI50 in the test on OVCAR-3 ovarian was 0.285 µM; in the test on SK-MEL-5 melanoma, 399 nM; in the test with HOP-62 NSCLC, 537 nM; with MOLT-4 leukemia, 455 nM; in the test on UACC-257 melanoma it was > 100000 nM; in the test on SNB-19 CNS, 0.508 µM. The GI50 with RXF 393 renal was 233 nM; in the test on M14 melanoma, 355 nM; in the test on RPMI-8226 leukemia it was 354 nM; in the test with DU-145 prostate it was 0.454 µM. In addition, the TGI is 0.871 µM in the test on OVCAR-3 ovarian; > 100 µM in the test with SK-MEL-5 melanoma; > 100 µM in the test with HOP-62 NSCLC; > 100 µM in the test with MOLT-4 leukemia; > 100 µM with UACC-257 melanoma; > 100 µM with SNB-19 CNS. For the same compound, the TGI with RXF 393 renal was 0.733 µM; in the test with M14 melanoma it was > 100 µM; with RPMI-8226 leukemia, > 100 µM; in the test on DU-145 prostate, > 100 µM.
In the case of `N#CC(C#N)SCc1ccccc1`, the TGI was > 100 µM in the test on OVCAR-3 ovarian; > 85.6 µM in the test on SK-MEL-5 melanoma; > 100 µM in the test on HOP-62 NSCLC; > 100 µM in the test on MOLT-4 leukemia; > 100 µM with UACC-257 melanoma; > 100 µM with SNB-19 CNS. In addition, the TGI with RXF 393 renal is 79 µM; in the test with M14 melanoma, > 100 µM; in the test on RPMI-8226 leukemia, > 38.6 µM; with DU-145 prostate, 55.3 µM.
With `S=C(N/N=C/c1cc(Cl)cc(Cl)c1)NC12CC3CC(CC(C3)C1)C2`, the GI50 in the test with OVCAR-3 ovarian is 6.03 µM; in the test with SK-MEL-5 melanoma it was > 100000 nM; in the test with HOP-62 NSCLC, 2430 nM; in the test on MOLT-4 leukemia, > 100000 nM; in the test with UACC-257 melanoma it was > 22700 nM; in the test with SNB-19 CNS it was 5.99 µM. For the same compound, the GI50 with RXF 393 renal was 4190 nM; with M14 melanoma it was 65000 nM; in the test with RPMI-8226 leukemia, > 100000 nM; with DU-145 prostate, 12.8 µM. The TGI with OVCAR-3 ovarian was > 100 µM; in the test with SK-MEL-5 melanoma, > 100 µM; with HOP-62 NSCLC it was 5.93 µM; with MOLT-4 leukemia it was > 100 µM; with UACC-257 melanoma, > 100 µM; in the test with SNB-19 CNS, > 100 µM. For the same compound, the TGI in the test on RXF 393 renal is > 37.2 µM; with M14 melanoma, > 100 µM; with RPMI-8226 leukemia, > 100 µM; in the test with DU-145 prostate, > 100 µM.
On to `Cc1ccc(C(=O)Nc2ccc(CN3CCN(C)CC3)c(C(F)(F)F)c2)cc1C#Cc1cnc(N)c2ccc(F)cc12`, for which the GI50 was 0.359 µM in the test on OVCAR-3 ovarian; 805 nM with SK-MEL-5 melanoma; 753 nM in the test with HOP-62 NSCLC; 92.1 nM in the test with MOLT-4 leukemia; 594 nM in the test with UACC-257 melanoma; 0.641 µM in the test with SNB-19 CNS. In addition, the GI50 is 218 nM in the test with RXF 393 renal, 88.1 nM in the test on M14 melanoma, 530 nM with RPMI-8226 leukemia and 0.139 µM in the test on DU-145 prostate. For the same compound, the TGI in the test with OVCAR-3 ovarian worked out at 1.06 µM; in the test with SK-MEL-5 melanoma, 2.18 µM; in the test on HOP-62 NSCLC, 3.44 µM; with MOLT-4 leukemia, 0.671 µM; in the test on UACC-257 melanoma, 1.95 µM; in the test on SNB-19 CNS, 1.81 µM. In addition, the TGI in the test on RXF 393 renal stood at 0.579 µM; with M14 melanoma, 0.441 µM; in the test with RPMI-8226 leukemia, 1.64 µM; in the test with DU-145 prostate it was 0.554 µM.
`CSc1ccc(/C=C2\CNC/C(=C\c3ccc(SC)cc3)C2=O)cc1`: the GI50 in the test on OVCAR-3 ovarian is 47.4 µg/mL; in the test on SK-MEL-5 melanoma, 150 µg/mL; in the test with HOP-62 NSCLC, 14 µM and 50.2 µg/mL; in the test with MOLT-4 leukemia, 150 µg/mL; in the test with UACC-257 melanoma it was 150 µg/mL; with SNB-19 CNS it was 50.9 µM and 23.9 µg/mL. The GI50 was 74 µM and 10.8 µg/mL in the test with RXF 393 renal; 61.9 µg/mL with RPMI-8226 leukemia. The TGI in the test with OVCAR-3 ovarian was > 136 µM and 150 µg/mL; in the test with SK-MEL-5 melanoma it was > 371 µM and 150 µg/mL; in the test on HOP-62 NSCLC, 59.3 µM and 131 µg/mL; with MOLT-4 leukemia, > 371 µM and 150 µg/mL; with UACC-257 melanoma it was > 371 µM and 150 µg/mL; with SNB-19 CNS, > 127 µM and 89.4 µg/mL. Besides, the TGI was 81.1 µM and 34.2 µg/mL in the test with RXF 393 renal; > 371 µM in the test with M14 melanoma; > 371 µM and 150 µg/mL with RPMI-8226 leukemia; > 371 µM with DU-145 prostate.
As for `COC(=O)C1=C(OC(=O)c2ccc(Cl)cc2)C(C(=O)OC)[C@@]2(O)[C@@H](C(=O)OC)C(c3ccccc3C(F)(F)F)C[C@@H]1[C@@H]2C(=O)OC` (stereo partly drawn), the GI50 was 20.3 µM in the test with OVCAR-3 ovarian; 3460 nM in the test on SK-MEL-5 melanoma; 9240 nM in the test with HOP-62 NSCLC; 2700 nM in the test with MOLT-4 leukemia; 2760 nM with UACC-257 melanoma; 6.44 µM with SNB-19 CNS. Further, the GI50 was 2140 nM with RXF 393 renal, 3160 nM with M14 melanoma, 2990 nM in the test on RPMI-8226 leukemia and 6.1 µM in the test with DU-145 prostate. The TGI with OVCAR-3 ovarian is 47.9 µM; in the test with SK-MEL-5 melanoma, 12.4 µM; in the test on HOP-62 NSCLC, > 100 µM; in the test with MOLT-4 leukemia, 7.86 µM; with UACC-257 melanoma, 8.32 µM; in the test with SNB-19 CNS, > 100 µM. Also, the TGI in the test on RXF 393 renal is 5.43 µM; in the test with M14 melanoma, 13 µM; in the test on RPMI-8226 leukemia it was > 100 µM; with DU-145 prostate it was > 100 µM.
